From patent US20040191913A1, “Method of evaluation of antioxidation ability by measuring redox balance in vivo” (priority 2002, published 2004)

How the values were obtained:
[1] = Radical removability by magnetic spin resonator (attenuation of the DMPO-OOL signal); format: biochemical; conditions: 10 mM DMPO; for IC50 / 50% Inhibition Concentration: DMPO-OOL signal intensity, 1 minute after start of reaction; for IC50: read-out: 50% Inhibition Concentration
Procedure: The antioxidation index is obtained by indexing the radical removability, R that is determined by the use of a magnetic spin resonator in the manner mentioned below, within a range of from 1 to 10points. The determination with a magnetic spin resonator is effected as follows: The DMPO-OOL radical resulting from trapping of a butylhydroperoxide radical by a spin trapping agent, 5,5-dimethyl-1-pyrroline-N-oxide (DMPO) is quantitatively determined by the use of a magnetic spin resonator, and a serum sample is added to the system to determine the degree of signal intensity attenuation in the system. […] Radical Removability R=[DMPO]/50% Inhibition Concentration.
Preferably, the determination with a magnetic spin resonator is effected as follows: 100 mM butylhydroperoxide, 50 μg/ml methemoglobin, 10 mM DMPO and 0.1 mM diethylenetriamine-pentaacetic acid are reacted in 10 mM phosphate buffer. One minute after the start of the reaction, the DMPO-OOL signal intensity is measured by the use of a magnetic spin resonator.

[2] = test system: Leptin receptor-defective, natural diabetic db/db mice; assay: Animal test: 0.02% astaxanthin feed in diabetic db/db mice; format: in vivo
Excerpt: The quantitative determination of 8-OHdG is effected through enzyme immunoassay using a monoclonal antibody.
Leptin receptor-defective, natural diabetic db/db mice (animal model similar to human type-II diabetes) were used in the test. […] A control group of leptin receptor-defective, natural diabetic db/db mice was not given astaxanthin.

Row | Molecule | IC50 [1] [µM] | R (Radical Removability = [DMPO]/50% Inhibition Concentration) [1] | also measured
1 | CC1=C(/C=C/C(C)=C/C=C/C(C)=C/C=C/C=C(C)/C=C/C=C(C)/C=C/C2=C(C)C(=O)[C@@H](O)CC2(C)C)C(C)(C)C[C@H](O)C1=O [Astaxanthin, astaxanthin] | – | – | 8-OHdG discharge in urine (in words) ([2]; 3 months): significantly inhibits; development of diabetic nephropathy (in words) ([2]; 3 months): significantly retards; 8-OHdG in Urine ([2]; fed for 3 months, enzyme immunoassay, p < 0.05 vs control group): 135.6 ± 41.1 ng/day; Albumin in Urine ([2]; fed for 3 months, p < 0.05 vs control group): 68.6 ± 13.4 µg/day
2 | O=c1[nH]c(=O)c2[nH]c(=O)[nH]c2[nH]1 [Uric acid] | 360 | 28 | –
3 | CC1=C(/C=C/C(C)=C/C=C/C(C)=C/C=C/C=C(C)/C=C/C=C(C)/C=C/C2=C(C)CCCC2(C)C)C(C)(C)CCC1 [β-Carotene] | – | – | 50% Inhibition Concentration [1]: >0.2 mg/mL
4 | Catalase | – | – | 50% Inhibition Concentration [1]: >4,000 U/ml

Second part, led by results:

Row | IC50 [1] [µM] | Molecule | R (Radical Removability = [DMPO]/50% Inhibition Concentration) [1] | also measured
5 | 44 | O=C1O[C@H]([C@@H](O)CO)C(O)=C1O [Ascorbic acid] | 227 | –
6 | 410 | N[C@@H](CCC(=O)N[C@@H](CS)C(=O)NCC(=O)O)C(=O)O [Glutathione] | 24 | –
7 | 700 | Cc1c(C)c2c(c(C)c1O)CC[C@@](C)(CCC[C@H](C)CCC[C@H](C)CCCC(C)C)O2 [α-Tocopherol] | 14 | –
